What was measured:
[1] = biological target: FER (Homo sapiens, UniProt P16591); assay: Biochemical kinase activity assay (Invitrogen SelectScreen); conditions: read-out: % inhibition, FER
[2] = biological target: GCK (Homo sapiens, UniProt Q12851); assay: as above; conditions: read-out: % inhibition, GCK
[3] = biological target: T1, MER (Homo sapiens, UniProt Q12866); assay: as above
T1 sequence (Q12866 21-999): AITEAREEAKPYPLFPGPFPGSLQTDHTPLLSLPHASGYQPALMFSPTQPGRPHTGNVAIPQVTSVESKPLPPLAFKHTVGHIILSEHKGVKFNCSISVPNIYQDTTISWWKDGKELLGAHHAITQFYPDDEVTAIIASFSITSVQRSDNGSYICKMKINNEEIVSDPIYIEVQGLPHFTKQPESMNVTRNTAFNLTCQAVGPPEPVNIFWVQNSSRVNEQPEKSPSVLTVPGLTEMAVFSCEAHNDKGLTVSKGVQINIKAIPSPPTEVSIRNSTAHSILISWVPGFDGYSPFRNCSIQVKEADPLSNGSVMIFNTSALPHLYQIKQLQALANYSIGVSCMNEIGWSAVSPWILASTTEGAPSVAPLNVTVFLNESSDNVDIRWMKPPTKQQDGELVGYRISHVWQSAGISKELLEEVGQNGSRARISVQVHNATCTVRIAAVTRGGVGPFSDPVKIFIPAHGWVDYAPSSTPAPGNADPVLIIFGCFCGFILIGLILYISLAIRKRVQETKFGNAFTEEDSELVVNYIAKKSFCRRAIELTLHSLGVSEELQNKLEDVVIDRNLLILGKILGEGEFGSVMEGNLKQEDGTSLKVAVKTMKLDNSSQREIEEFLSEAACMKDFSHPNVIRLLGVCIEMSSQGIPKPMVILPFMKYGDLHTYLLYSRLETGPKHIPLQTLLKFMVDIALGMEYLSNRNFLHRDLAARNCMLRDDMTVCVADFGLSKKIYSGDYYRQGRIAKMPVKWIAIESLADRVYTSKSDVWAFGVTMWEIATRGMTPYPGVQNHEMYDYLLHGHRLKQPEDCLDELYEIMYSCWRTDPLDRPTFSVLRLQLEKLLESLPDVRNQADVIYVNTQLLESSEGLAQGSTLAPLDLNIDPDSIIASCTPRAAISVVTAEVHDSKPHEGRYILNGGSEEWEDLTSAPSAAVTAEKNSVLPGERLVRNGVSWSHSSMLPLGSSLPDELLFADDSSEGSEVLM

[4] = biological target: T2, DDR2 (Homo sapiens, UniProt Q16832); assay: Biochemical kinase activity assay (Upstate IC50Profiler Express); conditions: Upstate IC50Profiler Express service
T2 construct: purchased Upstate (IC50Profiler Express service)

[5] = biological target: CSK (Homo sapiens, UniProt P41240); conditions: purified kinase; published data; cited from earlier work

FER, sequence (P16591 whole entry): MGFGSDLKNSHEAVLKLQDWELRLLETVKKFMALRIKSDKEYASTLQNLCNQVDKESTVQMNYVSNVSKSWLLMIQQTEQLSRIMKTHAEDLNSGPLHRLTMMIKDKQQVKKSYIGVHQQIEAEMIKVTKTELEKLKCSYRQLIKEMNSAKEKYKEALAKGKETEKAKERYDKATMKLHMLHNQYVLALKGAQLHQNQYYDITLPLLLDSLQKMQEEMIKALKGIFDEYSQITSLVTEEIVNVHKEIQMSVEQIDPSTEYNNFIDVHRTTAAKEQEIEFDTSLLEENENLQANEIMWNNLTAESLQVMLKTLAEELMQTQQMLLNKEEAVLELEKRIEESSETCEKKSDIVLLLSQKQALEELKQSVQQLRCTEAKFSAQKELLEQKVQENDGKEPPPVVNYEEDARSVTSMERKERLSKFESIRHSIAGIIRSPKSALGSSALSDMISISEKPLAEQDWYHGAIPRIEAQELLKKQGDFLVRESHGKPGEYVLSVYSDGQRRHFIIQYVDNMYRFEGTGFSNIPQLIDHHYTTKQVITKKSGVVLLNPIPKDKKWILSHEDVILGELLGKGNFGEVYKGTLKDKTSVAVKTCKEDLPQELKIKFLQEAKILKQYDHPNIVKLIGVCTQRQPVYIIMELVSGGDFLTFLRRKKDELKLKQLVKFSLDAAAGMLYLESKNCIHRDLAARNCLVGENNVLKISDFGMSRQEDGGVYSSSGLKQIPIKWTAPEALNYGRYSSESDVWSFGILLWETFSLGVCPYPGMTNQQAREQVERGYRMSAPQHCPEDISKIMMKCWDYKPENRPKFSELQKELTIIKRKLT
T2 sequence (Q16832 22-855): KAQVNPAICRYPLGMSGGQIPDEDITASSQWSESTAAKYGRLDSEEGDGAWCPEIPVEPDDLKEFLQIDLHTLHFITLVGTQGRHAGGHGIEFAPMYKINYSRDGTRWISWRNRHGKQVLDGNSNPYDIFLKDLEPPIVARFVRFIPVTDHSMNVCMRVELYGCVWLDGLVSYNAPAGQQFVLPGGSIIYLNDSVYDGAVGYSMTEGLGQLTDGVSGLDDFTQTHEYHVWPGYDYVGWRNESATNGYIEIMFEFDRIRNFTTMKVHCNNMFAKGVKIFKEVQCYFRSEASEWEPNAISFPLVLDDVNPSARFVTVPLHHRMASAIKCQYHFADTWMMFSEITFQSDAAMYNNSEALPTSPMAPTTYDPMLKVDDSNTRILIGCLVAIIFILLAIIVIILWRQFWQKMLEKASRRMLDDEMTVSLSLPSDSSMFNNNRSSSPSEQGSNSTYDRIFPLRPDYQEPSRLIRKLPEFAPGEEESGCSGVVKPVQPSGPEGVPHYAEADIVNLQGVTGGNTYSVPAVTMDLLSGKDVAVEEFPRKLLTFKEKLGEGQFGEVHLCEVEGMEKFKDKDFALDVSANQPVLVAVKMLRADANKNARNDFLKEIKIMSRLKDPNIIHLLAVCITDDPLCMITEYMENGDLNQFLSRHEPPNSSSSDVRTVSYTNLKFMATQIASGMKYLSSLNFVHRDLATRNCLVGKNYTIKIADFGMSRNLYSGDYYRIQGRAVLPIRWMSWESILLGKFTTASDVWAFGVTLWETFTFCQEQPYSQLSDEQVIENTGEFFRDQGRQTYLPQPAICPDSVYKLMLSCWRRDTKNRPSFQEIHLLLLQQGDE
GCK, sequence (Q12851 whole entry): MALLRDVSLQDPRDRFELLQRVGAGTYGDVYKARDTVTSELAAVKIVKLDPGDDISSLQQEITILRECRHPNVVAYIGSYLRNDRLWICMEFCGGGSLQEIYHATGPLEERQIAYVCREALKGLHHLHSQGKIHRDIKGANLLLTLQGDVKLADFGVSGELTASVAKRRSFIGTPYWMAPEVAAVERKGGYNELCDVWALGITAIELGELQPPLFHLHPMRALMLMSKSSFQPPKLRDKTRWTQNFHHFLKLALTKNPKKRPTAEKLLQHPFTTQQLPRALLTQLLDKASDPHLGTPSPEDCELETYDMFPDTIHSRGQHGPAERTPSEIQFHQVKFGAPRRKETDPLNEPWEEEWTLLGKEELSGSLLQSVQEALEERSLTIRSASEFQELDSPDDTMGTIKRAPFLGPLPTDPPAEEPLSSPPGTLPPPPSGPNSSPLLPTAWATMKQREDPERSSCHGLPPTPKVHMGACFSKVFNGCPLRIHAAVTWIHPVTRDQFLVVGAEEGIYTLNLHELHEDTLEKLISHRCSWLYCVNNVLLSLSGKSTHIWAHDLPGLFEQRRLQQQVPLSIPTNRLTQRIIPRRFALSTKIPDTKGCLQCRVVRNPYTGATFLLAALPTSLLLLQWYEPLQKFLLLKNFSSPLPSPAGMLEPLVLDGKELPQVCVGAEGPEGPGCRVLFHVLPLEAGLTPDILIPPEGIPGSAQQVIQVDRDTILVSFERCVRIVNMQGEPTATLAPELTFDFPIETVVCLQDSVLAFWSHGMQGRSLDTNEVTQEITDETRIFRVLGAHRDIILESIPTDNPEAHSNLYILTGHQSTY

| inhibition at 5 µM [1] | inhibition at 5 µM [2] | inhibition at 5 µM ([3]; read-out: % inhibition, MER) | IC50 [4] | IC50 [3] | SMILES | IC50 [5] |
| --- | --- | --- | --- | --- | --- | --- |
| 36% | 60% | 40% |  |  | Cc1nc(Nc2ncc(C(=O)Nc3c(C)cccc3Cl)s2)cc(N2CCN(CCO)CC2)n1 [dasatinib] |  |
|  |  |  | 4.9 µM | 0.0157 µM | COc1cc(Nc2c(C#N)cnc3cc(OCCCN4CCN(C)CC4)c(OC)cc23)c(Cl)cc1Cl [bosutinib] | 0.31 µM |

— patent US20090238808A1, “Process for the identification of novel enzyme interacting compounds” (priority 2005, published 2009)
